Source: PubChem BioAssay AID330 (DTP/NCI, 2004)
Several values for one entry are separate records, joined by “and”; a condition that tells them apart may be missing. Equal entries are not always repeated. Toxic doses and inconclusive results are not listed. Rule for the calls: active = survival T/C of 150% or more; inactive = T/C below 125% in these data.

Tested on: P388 leukemia ip, CD2F1 mice, survival T/C
Test: NCI In Vivo Anticancer Drug Screen. Data for tumor model P388 Leukemia (intraperitoneal) in CD2F1 (CDF1) mice
Conditions: endpoint: median survival time, higher = longer survival
Summary of the method: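 Mice carrying the transplanted tumor received test compound or vehicle. Survival was recorded in each group, and the value is the treated-group measurement divided by that of the vehicle-treated control group.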

[1] = dose: 50.0 mg/kg/injection, schedule: Q01DX009 (ip), vehicle: Klucel (hydroxypropylcellulose) (HPC)
[2] = dose: 100.0 mg/kg/injection, schedule: Q01DX009 (ip), vehicle: Klucel (hydroxypropylcellulose) (HPC)
[3] = dose: 200.0 mg/kg/injection, schedule: Q01DX009 (ip), vehicle: Klucel (hydroxypropylcellulose) (HPC)
[4] = dose: 100.0 mg/kg/injection, schedule: Q01DX005 (ip), vehicle: saline with Tween-80
[5] = dose: 200.0 mg/kg/injection, schedule: Q01DX005 (ip), vehicle: saline with Tween-80
[6] = dose: 50.0 mg/kg/injection, schedule: Q01DX005 (ip), vehicle: saline with Tween-80
[7] = dose: 50.0 mg/kg/injection, schedule: Q01DX005 (ip), vehicle: Klucel (hydroxypropylcellulose) (HPC)
[8] = dose: 100.0 mg/kg/injection, schedule: Q01DX005 (ip), vehicle: Klucel (hydroxypropylcellulose) (HPC)
[9] = dose: 200.0 mg/kg/injection, schedule: Q01DX005 (ip), vehicle: Klucel (hydroxypropylcellulose) (HPC)
[10] = dose: 60.0 mg/kg/injection, schedule: Q01DX005 (ip), vehicle: saline with Tween-80
[11] = dose: 120.0 mg/kg/injection, schedule: Q01DX005 (ip), vehicle: saline with Tween-80
[12] = dose: 240.0 mg/kg/injection, schedule: Q01DX005 (ip), vehicle: saline with Tween-80

Measured: T/C

S=c1[nH]c2ccccc2n1CCc1ccncc1
inactive: dose: 25.0 mg/kg/injection, schedule: Q01DX007 (ip), vehicle: Klucel (hydroxypropylcellulose) (HPC) 104 % of control | dose: 25.0 mg/kg/injection, schedule: Q01DX008 (ip), vehicle: Klucel (hydroxypropylcellulose) (HPC) 103 % of control | dose: 50.0 mg/kg/injection, schedule: Q01DX007 (ip), vehicle: Klucel (hydroxypropylcellulose) (HPC) 104 % of control | dose: 50.0 mg/kg/injection, schedule: Q01DX008 (ip), vehicle: Klucel (hydroxypropylcellulose) (HPC) 106 % of control | [1] 93 % of control | dose: 100.0 mg/kg/injection, schedule: Q01DX007 (ip), vehicle: Klucel (hydroxypropylcellulose) (HPC) 99 % of control | dose: 100.0 mg/kg/injection, schedule: Q01DX008 (ip), vehicle: Klucel (hydroxypropylcellulose) (HPC) 100 % of control | [2] 94 % of control | dose: 200.0 mg/kg/injection, schedule: Q01DX007 (ip), vehicle: Klucel (hydroxypropylcellulose) (HPC) 106 % of control | dose: 200.0 mg/kg/injection, schedule: Q01DX008 (ip), vehicle: Klucel (hydroxypropylcellulose) (HPC) 106 % of control | [3] 94 % of control

C[c-]1[c-][c-][c-][c-]1.C[c-]1[c-][c-][c-][c-]1.[C-]#[O+].[C-]#[O+].[C-]#[O+].[C-]#[O+].[C-]#[O+].[C-]#[O+].[Mo].[Mo]
inactive: [4] 98 % of control | [5] 93 % of control

O=C(c1ccc(CSc2ccc(Cl)cc2)o1)N1CCOCC1
inactive: [6] 99 % of control | [4] 101 % of control | [5] 91 % of control

CCSc1n[nH]c(=O)n1C
inactive: dose: 50.0 mg/kg/injection, schedule: Q01DX005 (ip), vehicle: saline 99 % of control and 110 % of control | dose: 100.0 mg/kg/injection, schedule: Q01DX005 (ip), vehicle: saline 108 % of control and 114 % of control and 97 % of control | dose: 200.0 mg/kg/injection, schedule: Q01DX005 (ip), vehicle: saline 108 % of control and 121 % of control and 98 % of control | dose: 400.0 mg/kg/injection, schedule: Q01DX005 (ip), vehicle: saline 101 % of control and 109 % of control

O=S(=O)(O)N(O)c1ccccc1
inactive: dose: 25.0 mg/kg/injection, schedule: Q01DX001 (ip), vehicle: saline 103 % of control and 97 % of control | dose: 50.0 mg/kg/injection, schedule: Q01DX001 (ip), vehicle: saline 113 % of control and 95 % of control | dose: 100.0 mg/kg/injection, schedule: Q01DX001 (ip), vehicle: saline 106 % of control and 124 % of control | dose: 200.0 mg/kg/injection, schedule: Q01DX001 (ip), vehicle: saline 94 % of control

O=C(Sc1ccc(F)cc1)N1CCN(C(=O)Sc2ccc(F)cc2)CC1
inactive: [7] 99 % of control | [8] 96 % of control | [9] 100 % of control

[Br][Pt+2][Br].[NH-]C(c1ccccc1)C([NH-])c1ccccc1 (stereo unspecified)
inactive: dose: 12.5 mg/kg/injection, schedule: Q04DX002 (ip), vehicle: saline with Tween-80 112 % of control

Cc1ccc(S(=O)C2=CCCO2)cc1 (stereo unspecified)
inactive: dose: 12.5 mg/kg/injection, schedule: Q01DX005 (ip), vehicle: Klucel (hydroxypropylcellulose) (HPC) 100 % of control | dose: 25.0 mg/kg/injection, schedule: Q01DX005 (ip), vehicle: Klucel (hydroxypropylcellulose) (HPC) 102 % of control | [7] 101 % of control and 108 % of control | [8] 119 % of control | [9] 118 % of control

O=NNc1c2c(nc3ccccc13)CCCC2
inactive: dose: 3.12 mg/kg/injection, schedule: Q01DX009 (ip), vehicle: water 94 % of control | dose: 6.25 mg/kg/injection, schedule: Q01DX009 (ip), vehicle: water 94 % of control | dose: 12.5 mg/kg/injection, schedule: Q01DX009 (ip), vehicle: water 103 % of control | dose: 25.0 mg/kg/injection, schedule: Q01DX009 (ip), vehicle: water 100 % of control and 111 % of control and 112 % of control | dose: 50.0 mg/kg/injection, schedule: Q01DX009 (ip), vehicle: water 100 % of control and 110 % of control and 123 % of control | dose: 100.0 mg/kg/injection, schedule: Q01DX009 (ip), vehicle: water 100 % of control and 106 % of control | dose: 200.0 mg/kg/injection, schedule: Q01DX009 (ip), vehicle: water 89 % of control

CC(=O)NNC(=S)Nc1ccccc1
inactive: [6] 100 % of control | [4] 101 % of control | [5] 100 % of control

Cc1cc(C)c(F)[c]([Hg][Br])c1N
inactive: dose: 0.78 mg/kg/injection, schedule: Q01DX005 (ip), vehicle: Klucel (hydroxypropylcellulose) (HPC) 89 % of control | dose: 1.56 mg/kg/injection, schedule: Q01DX005 (ip), vehicle: Klucel (hydroxypropylcellulose) (HPC) 92 % of control | dose: 6.25 mg/kg/injection, schedule: Q01DX005 (ip), vehicle: Klucel (hydroxypropylcellulose) (HPC) 90 % of control and 92 % of control

CC(=O)NC(C)c1ccc2ccccc2c1 (stereo unspecified)
inactive: [10] 97 % of control | [11] 96 % of control | [12] 97 % of control

CC(C)(C)N=C(CCN1CCN(CCC(=NC(C)(C)C)Nc2c(Cl)cccc2Cl)CC1)Nc1c(Cl)cccc1Cl
inactive: [1] 96 % of control | [2] 95 % of control | [3] 92 % of control

COC(=O)C(CSC(c1ccccc1)(c1ccccc1)c1ccccc1)NC(=O)CCNC(=O)OCc1ccccc1 (stereo unspecified)
inactive: dose: 6.25 mg/kg/injection, schedule: Q01DX009 (ip), vehicle: other 103 % of control | dose: 12.5 mg/kg/injection, schedule: Q01DX009 (ip), vehicle: other 97 % of control | dose: 25.0 mg/kg/injection, schedule: Q01DX009 (ip), vehicle: other 94 % of control | dose: 50.0 mg/kg/injection, schedule: Q01DX009 (ip), vehicle: other 88 % of control

CCCCc1c(C)[nH]n(C(N)=NCCSCc2nc[nH]c2C)c1=O
inactive: dose: 60.0 mg/kg/injection, schedule: Q01DX005 (ip), vehicle: Klucel (hydroxypropylcellulose) (HPC) 100 % of control | dose: 120.0 mg/kg/injection, schedule: Q01DX005 (ip), vehicle: Klucel (hydroxypropylcellulose) (HPC) 99 % of control | dose: 240.0 mg/kg/injection, schedule: Q01DX005 (ip), vehicle: Klucel (hydroxypropylcellulose) (HPC) 100 % of control

CC12CCC/C(=N\NC(N)=S)C1C(=O)NC(=O)C2 (stereo unspecified)
inactive: [6] 99 % of control | [4] 96 % of control | [5] 97 % of control

CCn1c(=O)c2n[nH]nc2n(C2CC2)c1=O
inactive: dose: 50.0 mg/kg/injection, schedule: Q01DX009 (ip), vehicle: saline 92 % of control | dose: 100.0 mg/kg/injection, schedule: Q01DX009 (ip), vehicle: saline 96 % of control | dose: 200.0 mg/kg/injection, schedule: Q01DX009 (ip), vehicle: saline 105 % of control

O=C(N/N=C/c1cccc(C(F)(F)F)c1)c1ccncc1
inactive: [10] 103 % of control | [11] 97 % of control | [12] 90 % of control

C(=C\c1cc2ccc(C3=NCCN3)cc2o1)/c1cc2ccc(C3=NCCN3)cc2o1
inactive: dose: 12.5 mg/kg/injection, schedule: Q04DX003 (ip), vehicle: suspension in saline 107 % of control | dose: 25.0 mg/kg/injection, schedule: Q04DX003 (ip), vehicle: suspension in saline 114 % of control | dose: 50.0 mg/kg/injection, schedule: Q04DX003 (ip), vehicle: suspension in saline 106 % of control | dose: 100.0 mg/kg/injection, schedule: Q04DX003 (ip), vehicle: suspension in saline 122 % of control

CCN=NNc1ccc(C)cc1
inactive: dose: 25.0 mg/kg/injection, schedule: Q01DX009 (ip), vehicle: saline with Tween-80 110 % of control

COc1cccc(C[n+]2ccccc2C#N)c1OC
inactive: dose: 3.12 mg/kg/injection, schedule: Q04DX002 (ip), vehicle: saline 101 % of control | dose: 6.25 mg/kg/injection, schedule: Q04DX002 (ip), vehicle: saline 102 % of control | dose: 12.5 mg/kg/injection, schedule: Q04DX002 (ip), vehicle: saline 103 % of control and 92 % of control
